Data reported in patent US6413908B1, “Agrochemical surfactant compositions” (Imperial Chemical Industries plc, priority 1997, dated 2002).

Tests used:
Galium aparine [1] = assay: Field test, triasulfuron plus adjuvants against weeds in winter wheat; assay type: in vivo; conditions: triasulfuron 25 g.ha^−1, adjuvant 0.1% by weight or none; visual, percentage of plants affected, 5 weeks after treatment
Description: (§1) Field tests were carried out on test plots using a completely randomised block design with 4 replicates. […] In such a situation, it is an important benefit if the herbicide can limit the growth of the weeds (inhibition) e.g. by use of an adjuvant. In this Example, the effect of adjuvants on the activity of triasulfuron against G aparine and V hederifolia growing naturally as weeds in winter wheat was examined. […] G aparine and V hederifolia were used in evaluating herbicidal activity because of their regular distribution. […] The results of the runs using no adjuvant and those for combined adjuvants and herbicide are set out in Table 1 below.

Veronica hederifolia [2] = assay: as above; assay type: in vivo; conditions: triasulfuron 25 g.ha^−1, adjuvant 0.1% by weight or none; visual, percentage of plants affected, 5 weeks after treatment
Description: as §1

Veronica hederifolia [3] = conditions: background statement, no adjuvant; cited from earlier work
Galium aparine [4] = conditions: background statement, no adjuvant; cited from earlier work
Veronica hederffolia = assay: Field test, Cameo (tribenuron-methyl) plus adjuvants in winter wheat, growth reduction; assay type: in vivo; conditions: spray 0.015% tribenuron-methyl, 0.1% adjuvant in tank mix or none
Description: Field tests were carried out on test plots using a completely randomised block design with 4 replicates. The spray volume used was 300 I.ha^−1.
The spray solution contained 0.015% by weight tribenuronethyl and 0.1% adjuvant added to the tank mix. The effectiveness of the herbicides was assessed visually by the % growth reduction of the weeds as compared with untreated weeds.

Compound	Chlorosis, Galium aparine (5 weeks) (Galium aparine [1])	Inhibition, Galium aparine (5 weeks) (Galium aparine [1])	Necrosis, Galium aparine (5 weeks) (Galium aparine [1])	Chlorosis, Veronica hederifolia (5 weeks) (Veronica hederifolia [2])	Inhibition, Veronica hederifolia (5 weeks) (Veronica hederifolia [2])	Necrosis, Veronica hederifolia (5 weeks) (Veronica hederifolia [2])	known activity against ivy-leaved speedwell (Veronica hederifolia) (Veronica hederifolia [3])	known activity against cleavers (Galium aparine) (Galium aparine [4])	Inhibition (%), growth reduction of the weeds as compared with untreated weeds (Veronica hederffolia)
COc1nc(C)nc(NC(=O)NS(=O)(=O)c2ccccc2OCCCl)n1 [triasulfuron]	30%	50%	10%	10%	40%	10%	limited activity	limited activity	–
nonyl phenol 8-ethoxylate [NP8]	30%	40%	10%	40%	60%	30%	–	–	33%
